Experimental data: patent US20240115744A1, “FIBRIN-BINDING COMPOUNDS FOR IMAGING AND TREATMENT” (Collagen Medical, LLC, priority 2019, published 2024)
Entries after “also recorded” stand apart in the source; their conditions may differ. *1 amine or outer side, *2 acyl side, *3 side chain or, on linkers, in order; H or OH if unused. Where a SMILES comes first, the peptide text is derived from it. Bridges are numbered along the chain shown (N, C = ends). [ ]: non-standard residue; d: D form. The star is where a group is joined. NODAGA = O=C(O)CN1CCN(CC(=O)O)CCN(C(CCC(=O)*)C(=O)O)CC1; Tyr(3-Cl) = N[C@@H](Cc1ccc(O)c(Cl)c1)C(=O)O; X1 = O=C([C@@H]1CC(O)CN1[*:1])[*:2]

Molecular target: T1, fibrin in human carotid endarterectomy specimens (Homo sapiens, UniProt P02671+P02675+P02679)
T1 construct: discarded surgical specimens from asymptomatic patients who underwent elective carotid endarterectomy; from tissue; host or cells: human carotid endarterectomy specimens (cryosections or tissue pieces)
T1 sequence (P02671 36-644 isoform P02671-2 limits assumed): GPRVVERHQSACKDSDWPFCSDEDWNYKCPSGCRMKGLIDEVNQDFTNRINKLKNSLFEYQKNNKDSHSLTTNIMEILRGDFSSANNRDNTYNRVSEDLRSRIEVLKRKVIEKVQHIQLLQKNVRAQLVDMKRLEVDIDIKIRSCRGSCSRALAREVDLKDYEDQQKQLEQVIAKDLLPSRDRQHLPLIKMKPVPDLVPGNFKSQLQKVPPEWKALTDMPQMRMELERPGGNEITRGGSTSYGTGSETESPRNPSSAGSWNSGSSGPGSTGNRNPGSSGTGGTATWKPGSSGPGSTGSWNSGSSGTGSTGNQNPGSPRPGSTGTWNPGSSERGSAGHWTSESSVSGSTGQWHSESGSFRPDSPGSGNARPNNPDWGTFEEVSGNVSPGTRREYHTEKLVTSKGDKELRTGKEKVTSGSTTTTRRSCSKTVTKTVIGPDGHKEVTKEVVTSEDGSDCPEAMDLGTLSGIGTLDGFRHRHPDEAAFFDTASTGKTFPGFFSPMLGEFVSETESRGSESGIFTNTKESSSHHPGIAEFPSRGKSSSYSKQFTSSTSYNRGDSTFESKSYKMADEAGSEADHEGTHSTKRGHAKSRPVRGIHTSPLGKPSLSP
T1 sequence (P02675 45-491 limits assumed): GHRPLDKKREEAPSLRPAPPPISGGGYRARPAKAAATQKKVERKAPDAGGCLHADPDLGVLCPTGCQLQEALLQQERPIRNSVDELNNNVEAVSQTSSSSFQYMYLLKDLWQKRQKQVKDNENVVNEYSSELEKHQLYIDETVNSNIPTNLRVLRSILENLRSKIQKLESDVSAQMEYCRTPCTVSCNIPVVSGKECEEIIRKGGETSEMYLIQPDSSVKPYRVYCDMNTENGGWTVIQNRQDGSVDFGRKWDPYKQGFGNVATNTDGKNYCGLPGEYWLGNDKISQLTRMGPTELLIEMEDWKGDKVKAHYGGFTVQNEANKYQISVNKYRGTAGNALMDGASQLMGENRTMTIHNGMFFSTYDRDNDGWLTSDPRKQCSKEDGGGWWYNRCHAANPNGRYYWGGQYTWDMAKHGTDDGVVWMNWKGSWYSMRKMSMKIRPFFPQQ
T1 sequence (P02679 27-437 isoform P02679-2 limits assumed): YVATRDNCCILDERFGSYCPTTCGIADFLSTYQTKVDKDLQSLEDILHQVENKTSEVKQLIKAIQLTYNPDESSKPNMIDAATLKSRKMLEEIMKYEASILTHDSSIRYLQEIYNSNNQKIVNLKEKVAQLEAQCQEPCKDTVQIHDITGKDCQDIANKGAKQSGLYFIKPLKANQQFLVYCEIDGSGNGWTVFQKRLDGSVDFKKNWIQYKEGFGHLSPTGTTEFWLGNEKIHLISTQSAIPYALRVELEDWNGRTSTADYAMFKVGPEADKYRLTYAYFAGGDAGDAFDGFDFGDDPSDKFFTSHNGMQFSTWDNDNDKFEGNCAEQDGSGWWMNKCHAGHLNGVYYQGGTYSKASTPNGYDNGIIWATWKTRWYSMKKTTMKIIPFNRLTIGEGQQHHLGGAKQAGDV
Assay: Ex vivo autoradiography of human carotid endarterectomy specimens
Conditions: compared to non-binding probe ^68Ga-22; 12 patients; P<0.05
Experimental: Twelve discarded surgical specimens from asymptomatic patients who underwent elective carotid endarterectomy at Massachusetts General Hospital were obtained and used in ex vivo studies described herein. Samples were processed for histology, autoradiography, and probe binding assay as described above (Examples 6 and 13).
Discarded surgical specimens were embedded in optimal cutting temperature compound, snap-frozen, and stored at −80° C. before further analysis. Alternating consecutive cryosections were processed for histology and autoradiography; triplicate tissue samples with 50 μm gap in between were used for these experiments. The remaining tissue samples were processed for functional probe assay.
For autoradiography, three 30 μm-thick sections were incubated with ^68Ga-20 or non-fibrin binding control probe ^68Ga-22 for 45 minutes on a lab shaker at room temperature. Autoradiography was performed after three washes of PBS. The exposure time was 2 minutes.

For CC[C@H](C)[C@H](NC(=O)[C@H](Cc1cnc[nH]1)NC(=O)[C@@H]1CSSC[C@H](NC(=O)[C@@H](CCC(=O)O)NC(=O)[C@H](Cc2ccc(O)cc2)NC(=O)CCC(C(=O)O)N2CCN(CC(=O)O)CCN(CC(=O)O)CC2)C(=O)N2CC(O)C[C@H]2C(=O)N[C@@H](Cc2ccc(O)c(Cl)c2)C(=O)NCC(=O)N[C@@H](CC(C)C)C(=O)N1)C(=O)N[C@H](CCC(N)=O)C(N)=O (stereo partly shown) [Compound ^68Ga-20, metal not drawn] ({NODAGA}-Y[dE]C[X1][Tyr(3-Cl)]GLCHI[dQ]-NH2; disulfide 3-8), the “uptake, autoradiography” value was “variable but significantly increased; also recorded: significantly higher uptake”.
